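All cell lines were grown in 96-well plates and treated with compound for 48 hours. GI50 marks 50% less growth.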 Calls of active or inactive are those of the source. Rule as the data show it: active = GI50 up to about 1.1 µM and inactive = higher.
Key:
Test in all cases: NCI anticancer screen, dose series, 48 h
SN12C = system: SN12C
DU-145 = system: DU-145
HCC 2998 = system: HCC 2998
EKVX = system: EKVX
SW-620 = system: SW-620
HCT-116 = system: HCT-116
K562 = system: K562
BT-549 = system: BT-549
MCF7 = system: MCF7
Hs-578T = system: Hs-578T
SF-539 = system: SF-539
LOX IMVI = system: LOX IMVI
M14 = system: M14
HT-29 = system: HT-29
A498 = system: A498
SF-295 = system: SF-295
NCI-H522 = system: NCI-H522
UO-31 = system: UO-31
SR = system: SR

Measured: GI50

Fc1ccc(C(OCCN2CC3CC2CN3CCCc2ccccc2)c2ccc(F)cc2)cc1 (configuration not stated)
inactive: SN12C 10.3 µM | DU-145 10.1 µM | HCC 2998 2.38 µM | EKVX 6.01 µM | SW-620 6.53 µM | HCT-116 5.86 µM | K562 3.11 µM | BT-549 11.8 µM | MCF7 6.08 µM | Hs-578T 10.1 µM | SF-539 2.37 µM | LOX IMVI 5.87 µM | M14 2.02 µM | HT-29 3.85 µM | A498 4.98 µM | SF-295 6.19 µM | NCI-H522 7.98 µM | UO-31 12.3 µM

O=c1cc(N2CCCC2)[nH]c(=O)n1-c1ccc(Cl)cc1
inactive: SN12C > 100 µM | DU-145 > 100 µM | HCC 2998 > 100 µM | EKVX > 100 µM | SW-620 > 100 µM | HCT-116 > 100 µM | K562 > 100 µM | BT-549 > 100 µM | MCF7 > 100 µM | Hs-578T > 100 µM | SF-539 > 100 µM | LOX IMVI > 100 µM | M14 > 100 µM | HT-29 > 100 µM | A498 > 100 µM | SF-295 > 100 µM | NCI-H522 > 100 µM

CCn1c(CCCc2nc3c(=O)n(C)c(=O)n(C)c3[nH]2)nc2c1c(=O)n(C)c(=O)n2C
inactive: SN12C 46 µM | DU-145 > 100 µM | HCC 2998 > 100 µM | EKVX 43 µM | SW-620 > 100 µM | HCT-116 > 100 µM | K562 75.7 µM | BT-549 > 100 µM | MCF7 > 100 µM | Hs-578T > 100 µM | SF-539 14.9 µM | LOX IMVI > 100 µM | M14 > 100 µM | HT-29 > 100 µM | A498 > 100 µM | SF-295 > 100 µM | NCI-H522 > 100 µM | UO-31 > 100 µM

CSc1nc2c(c(=O)[nH]1)N=C(c1ccc(Cl)cc1)CC(c1ccccc1)N2 (configuration not stated)
inactive: SN12C 16.4 µM | DU-145 20.7 µM | HCC 2998 15.5 µM | EKVX 18.3 µM | SW-620 18.8 µM | HCT-116 21.3 µM | K562 22.2 µM | BT-549 19.7 µM | MCF7 19.1 µM | SF-539 19.2 µM | LOX IMVI 18.7 µM | M14 16.3 µM | HT-29 17.3 µM | A498 30.2 µM | SR 37.8 µM | SF-295 18.6 µM | NCI-H522 14.5 µM | UO-31 13.9 µM

CCN1CC2=C(N=c3s/c(=C\c4ccc(Cl)cc4)c(=O)n3C2c2ccc(Cl)cc2)/C(=C/c2ccc(Cl)cc2)C1 (configuration not stated)
inactive: DU-145 > 100 µM | HCC 2998 > 100 µM | EKVX > 100 µM | SW-620 > 100 µM | HCT-116 44.1 µM | K562 > 100 µM | BT-549 26.4 µM | MCF7 > 100 µM | Hs-578T 25.8 µM | LOX IMVI > 100 µM | M14 73.1 µM | HT-29 > 100 µM | A498 24.6 µM | SF-295 33 µM | NCI-H522 > 100 µM | UO-31 > 100 µM

C/C(Nc1ccc(F)cc1)=C1/CCOC1=O
inactive: SN12C > 100 µM | DU-145 > 100 µM | HCC 2998 25.6 µM | EKVX > 100 µM | SW-620 > 100 µM | HCT-116 > 100 µM | K562 62.8 µM | BT-549 > 100 µM | Hs-578T > 100 µM | SF-539 77.3 µM | LOX IMVI 2.25 µM | HT-29 > 100 µM | A498 > 100 µM | SR > 100 µM | SF-295 16.5 µM | NCI-H522 > 100 µM | UO-31 92.3 µM

CCCCCCCCCCCCCCCCCCNc1ccn(C2OC(CO)C(OP(=O)(O)OCC(O)COP(=O)(O)OCC3OC(n4cc(F)c(NCCCCCCCCCCCCCCCCCC)nc4=O)CC3O)C2O)c(=O)n1 (configuration not stated)
inactive: SN12C > 50 µM | DU-145 > 50 µM | HCC 2998 > 50 µM | EKVX > 50 µM | SW-620 > 50 µM | HCT-116 > 50 µM | K562 > 50 µM | BT-549 > 50 µM | MCF7 > 50 µM | Hs-578T > 50 µM | SF-539 > 50 µM | LOX IMVI > 50 µM | M14 > 50 µM | HT-29 > 50 µM | A498 > 50 µM | SF-295 > 50 µM | NCI-H522 > 50 µM | UO-31 > 50 µM

From ChEMBL document CHEMBL1201862, “PubChem BioAssay data set” (2004)
